Values after ≈ are worked out from the molar mass of the structure shown. Where two headings read alike, the source gives them in different places.
Assays:
Type in all cases: cell-based
Aspergillus niger = assay: Growth inhibiting activity on the fungus Aspergillus niger; settings: Aspergillus niger pH 6.0; completely prevented growth; read-out: Minimum inhibitory concentration against fungi
Protocol: The microorganism growth inhibiting activity of compounds 1-4 on the fungus Aspergillus niger was evaluated. The method is described in U.S. Pat. No. 4,945,109, column 5 beginning at line 47 to column 6, line 33. The disclosure of U.S. Pat. No. 4,945,109 is incorporated herein by reference.

Chlorella pyrenoidosa = assay: Growth inhibiting activity against algae in Difco Algae Broth (Chlorella pyrenoidosa); settings: Auxenochlorella pyrenoidosa, 672 h
Protocol: (§1) The growth inhibiting activity of the method of the invention against the three algae Chlorella pyrenoidosa, Chlorococcum hypnosporum and Phormidium inundatum was evaluated in Difco Algae Broth, the content of which was as follows:
(§2) Forty-gram portions of the algae medium were added to 250 mL Pyrex Erlenmeyer flasks fitted with loose metal caps and then sterilized. Each of the following substances was then added to the flasks in the order listed:
(§3) 1. Sterile algae medium as required to bring the total weight of the contents of each flask to 50 grams, after allowing for all subsequent additions specified below.
(§4) 2. A solution of one of compounds 1-4 or of a control agent to be evaluated in each test, to give the concentration desired in parts per million by weight.
(§5) 3. Chlorella pyrenoidosa, Chlorococcum hypnosporum and Phormidium inundatum in amounts sufficient to give excellent growth in the controls after 14 days. This was achieved by adding 1 milliliter of a 14 day old culture having luxuriant growth. The Chlorella pyrenoidosa culture was obtained from American Type Culture Collection No. 7516; Chlorococcum hypnosporum, from the University of TX at Austin; and Phormidium inundatum, WI No. 1093, from the University of WA.
(§6) As a control experiment, WSCP was used as a positive control agent. WSCP is a known toxicant which kills C. pyrenoidosa at 2 ppm, C. hypnosporum at 2ppm, and P. inundatum at 10 ppm. Control experiments were also carried out where no toxicants were employed. In the algicidal tests, the growth of algae in the nutrient medium is lush green and can be seen with the naked eye. Because the minimum inhibitory concentrations of the compounds in this example are those which result in complete inhibition, evaluation of the test results is not subjective.
(§7) After the inoculum of the test algae was added, the flasks were incubated at a temperature of 28°±2° C. under fluorescent illumination of 250 foot-candle intensity (8 hours light, 16 hours darkness) for a period adequate for growth in the controls (those portions of medium which contained no toxicant). Observations of growth were made at 7-day intervals. Minimum inhibitory concentrations are those that prevented complete growth after 28 days.

Phormidium inundatum = assay: Growth inhibiting activity against algae in Difco Algae Broth (Phormidium inundatum); settings: 672 h
Protocol: as §1, §2, §3, §4, §5, §6, §7

Enterobacter aerogenes = assay: Basal salts method, minimum inhibitory concentration against Enterobacter aerogenes; settings: Klebsiella aerogenes, at least 80% kill
Protocol: Compounds 1-4 of Examples 3-6 of the present invention were tested by the basal salts method described in U.S. Pat. No. 2,881,070 at column 5, beginning at line 12 and extending to column 6, line 53. […] The minimum inhibitory concentrations are those in which a percentage kill of at least 80% is obtained.

Chlorococcum hypnosporum = assay: Growth inhibiting activity against algae in Difco Algae Broth (Chlorococcum hypnosporum); settings: 672 h
Protocol: as §1, §2, §3, §4, §5, §6, §7

[1] = pH 7, read-out: Minimum inhibitory concentration against algae

Structure (SMILES)	MIC (Aspergillus niger)	MIC (Chlorella pyrenoidosa; [1])	MIC (Phormidium inundatum; [1])	MIC (Enterobacter aerogenes; pH 6.0)	MIC (Enterobacter aerogenes; pH 8.0)	MIC (Chlorococcum hypnosporum; [1])	MIC (Chlorella pyrenoidosa; C. pyrenoidosa, pH 7, 28 days, read-out: Minimum inhibitory concentration against algae)	MIC (Phormidium inundatum; P. inundatum, pH 7, 28 days, read-out: Minimum inhibitory concentration against algae)	MIC (Chlorococcum hypnosporum; C. hypnosporum, pH 7, 28 days, read-out: Minimum inhibitory concentration against algae)
O=C1OC(CCl)CN1Cl (stereo not drawn) [Compound 2, 3-Chloro-5-chloromethyl-2-oxazolidinone]	128 µg/mL (≈ 753 µM)	1 µg/mL (≈ 5.88 µM)	1 µg/mL (≈ 5.88 µM)	8 µg/mL	10 µg/mL	1 µg/mL (≈ 5.88 µM)	–	–	–
O=C1OC(CBr)CN1Br (stereo not drawn) [Compound 3, 3-Bromo-5-bromomethyl-2-oxazolidinone]	100 µg/mL (≈ 386 µM)	–	–	2 µg/mL	4 µg/mL	–	2 µg/mL (≈ 7.73 µM)	2 µg/mL (≈ 7.73 µM)	8 µg/mL (≈ 30.9 µM)
O=C1OC(CBr)CN1Cl (stereo not drawn) [Compound 4, 3-Chloro-5-bromomethyl-2-oxazolidinone]	100 µg/mL (≈ 466 µM)	4 µg/mL (≈ 18.7 µM)	8 µg/mL (≈ 37.3 µM)	10 µg/mL	20 µg/mL	8 µg/mL (≈ 37.3 µM)	–	–	–

From US5162354A, “3-halo-5-halomethyl-2-oxazolidinones and their use as microbicides” (Buckman Laboratories International, Inc., priority 1991, dated 1992)
